The source of these data is US20260250293A1, “ULODESINE SALT” (Laevoroc Immunology AG, priority 2021, published 2026).

Where two headings read alike, the source gives them in different places.

Common to all, as to format: physicochemical
A short description of data set [1]: Thermodynamic solubility study in water, SGF, FaSSIF and FeSSIF. The following applies: for XRPD of residual solid: after 24 hrs solubility study. As for the experimental part: Then all the samples were vortex for 30 s to disperse homogenously and placed into a constant temperature shaking incubator at 37° C. with 200 rpm for 24 hrs. If the API dissolved, more material will be added to keep suspension state. The concentration, XRPD and pH were tested at desired time points.

Data set [2] is described as follows: Dynamic vapour sorption (DVS). The following applies: for DVS hygroscopicity / DVS water uptake: 25° C. Here is the method:
The moisture sorption profile was generated at 25° C. using a DVS moisture balance flow system (Model Advantage 1.0) with the following conditions: sample size approximately 10 mg, drying 25° C. for 60 minutes, adsorption range 0% to 95% RH, desorption range 95% to 0% RH, and step interval 5%. The equilibrium criterion was <0.01% weight change in 5 minutes for a maximum of 120 minutes.

A short description of data set [3]: Solid state stability study. Conditions: for Purity(%): HPLC. Here is the method:
(closed) and 40° C./75% RH (open) conditions during 2 weeks. […] At 0, 1 week and 2 weeks' time points, the corresponding samples will be sampled for purity determination by HPLC to assess the chemical stability. Also, one more sample was prepared under corresponding condition for appearance and XRPD test to evaluate the physical stability.

The nature of data set [4]: Aqueous formulation stability. The following applies: for formulation stability: in water at 0.1 mg/ml (calculated by freebase), room temperature, 14 days. As for the experimental part: The sample condition was maintained at 21-25° C. and protected from light.
Duplicate samples were prepared by transfer 4 ml solution into an 8 mL glass bottle and all the samples were placed in dark under room temperature. At desired time points of 0, 3, 7, 10 and 14 days, the sample concentration was analysed by HPLC and the pH value was measured.

Where [5] appears, read: solubility sample in FaSSIF(pH 6.5).
The mark [6] stands for this setting: solubility sample in FeSSIF(pH 5).
Where [7] appears, read: solubility sample in SGF(pH 1.2).
Setting [8] is: listed as Ulodesine hemi-L-glutarate.
Where [9] appears, read: 40° C./75% RH open, 2 weeks, listed as Ulodesine Hemi L-glutarate.
The mark [10] stands for this setting: 40° C./75% RH open, 2 weeks, listed as Ulodesine Hemi succinate.
The mark [11] stands for this setting: 60° C. close, 2 weeks, listed as Ulodesine Hemi succinate.

With `O=c1nc[nH]c2c(CN3C[C@H](CO)[C@@H](O)C3)c[nH]c12` [Ulodesine hemi L-glutarate], the “XRPD of residual solid” value in data set [1] (FaSSIF(pH 6.5)), in data set [1] (FeSSIF(pH 5)) and in data set [1] (water) was “changed compared to initial solid form” in each case. Further, the “pH value at 24 hrs” value turned out to be 7.72 in data set [1] (setting [5]), 7.78 in data set [1] (setting [6]), 7.75 in data set [1] (setting [7]) and 7.58 in data set [1] (solubility sample in water). In addition, the “XRPD pre and post DVS” value in data set [2] is on record as “No change”; in data set [2] (setting [8]) it was “no change”. Further, the figures for the DVS hygroscopicity entry in data set [2] and in data set [2] (setting [8]) were “Moderately hygroscopic” and “moderately hygroscopic”, respectively. Further, the DVS water uptake result in data set [2] (at 80% RH) is recorded as “(2.53% at 80% RH;”; in data set [2] (at 80% RH, listed as Ulodesine hemi-L-glutarate), 2.53%; in data set [2] (at 95% RH), 27.06% at 95% RH). Also, the “TRS(%) (=100% − purity %)” value stood at 0.60% in data set [3] (0 d); 0.48% in data set [3] (40° C./75% RH open, 1 week); 0.40% in data set [3] (setting [9]); 0.74% in data set [3] (60° C. close, 1 week). Also, the “Purity(%)” value in data set [3] (0 d) is on record as 99.403%; in data set [3] (40° C./75% RH open, 1 week), 99.524%; in data set [3] (40° C./75% RH open, 2 weeks), 99.600%; in data set [3] (60° C. close, 1 week) it was 99.258%; in data set [3] (60° C. close, 2 weeks), 98.984%. For the same compound, the “degradation (related substance increase)” value in data set [3] (40° C./75% RH condition, during 2 weeks) is recorded as “no related substance increased”. Besides, the “TRS Change(%) (Compared to 0 d)” value is −0.12% in data set [3] (40° C./75% RH open, 1 week); −0.20% in data set [3] (setting [9]); 0.15% in data set [3] (60° C. close, 1 week); 0.42% TRS in data set [3] (60° C. close, 2 weeks); 0.42% in data set [3] (60° C. close, 2 weeks, listed as Ulodesine Hemi L-glutarate). For the same compound, in data set [3] (during 2 weeks under 60° C. and 40° C./75% RH conditions), the “appearance and XRPD (polymorph) change” value was “no appearance and polymorph change”. In addition, in data set [3] (under 40° C./75% RH condition), the “chemical stability based on the purity result” value is on record as “more chemically stable than Ulodesine Hemi succinate”. Moreover, the “change of appearance, concentration and purity of solution” value in data set [4] (in water at 0.1 mg/ml (cal. by freebase), 14 days at room temperature, dark) is given as “no significant change”. The formulation stability result in data set [4] was “physically and chemically stable for 14 days”; in data set [4] (listed as ulodesine hemi L-glutarate) it was “good formulation stability”.

With `O=c1nc[nH]c2c(CN3C[C@H](CO)[C@@H](O)C3)c[nH]c12` [Ulodesine hemi adipinate], the “pH value at 24 hrs” value is 6.40 in data set [1] (setting [5]), 6.09 in data set [1] (setting [6]), 5.60 in data set [1] (setting [7]) and 6.56 in data set [1] (solubility sample in water). Moreover, the “XRPD pre and post DVS” value in data set [2] was “No change”. Besides, the DVS hygroscopicity entry in data set [2] was “Moderately hygroscopic”. Besides, the DVS water uptake entry is “(3.68% at 80% RH;” in data set [2] (at 80% RH) and 15.80% at 95% RH) in data set [2] (at 95% RH).

For the compound `O=c1nc[nH]c2c(CN3C[C@H](CO)[C@@H](O)C3)c[nH]c12` [Ulodesine hemi succinate, reference compound], the “pH value at 24 hrs” value is 6.16 in data set [1] (setting [5]), 5.75 in data set [1] (setting [6]), 5.32 in data set [1] (setting [7]) and 6.34 in data set [1] (solubility sample in water). Moreover, the “XRPD pre and post DVS” value in data set [2] is on record as “No change”. For the same compound, in data set [2], the DVS hygroscopicity result is “Moderately hygroscopic”. The DVS water uptake result in data set [2] (at 80% RH) is reported as “(6.97% at 80% RH;”; in data set [2] (at 95% RH), 11.86% at 95% RH). In addition, the “TRS(%) (=100% − purity %)” value in data set [3] (0 d) is 0.06%; in data set [3] (40° C./75% RH open, 1 week) it was 0.39%; in data set [3] (setting [10]), 0.22%; in data set [3] (60° C. close, 1 week), 0.18%; in data set [3] (setting [11]), 0.40%. In addition, the “Purity(%)” value in data set [3] (0 d) turned out to be 99.942%; in data set [3] (40° C./75% RH open, 1 week) it was 99.613%; in data set [3] (40° C./75% RH open, 2 weeks), 99.782%; in data set [3] (60° C. close, 1 week) it was 99.816%; in data set [3] (60° C. close, 2 weeks) it was 99.601%. Further, the “TRS Change(%) (Compared to 0 d)” value turned out to be 0.33% in data set [3] (40° C./75% RH open, 1 week); 0.16% TRS increased at in data set [3] (40° C./75% RH open, 2 weeks); 0.16% in data set [3] (setting [10]); 0.13% in data set [3] (60° C. close, 1 week); 0.34% TRS increased at in data set [3] (60° C. close, 2 weeks); 0.34% in data set [3] (setting [11]).
